Laboratory results: patent US11654196B2, “Dosing regimens for echinocandin class compounds” (priority 2012, dated 2023)
Read-outs that look alike come from different tables or passages of the source. *1 amine or outer side, *2 acyl side, *3 side chain or, on linkers, in order; H or OH if unused. Where a SMILES comes first, the peptide text is derived from it. Bridges are numbered along the chain shown (N, C = ends). [ ]: non-standard residue; d: D form. The star is where a group is joined. pTerphenylCO(4''-OnC5H11) = CCCCCOc1ccc(-c2ccc(-c3ccc(C(=O)*)cc3)cc2)cc1; Orn(4R-OH,5R-OH) = O=C([C@H](C[C@@H](O)[C@@H](O)N[*:3])N[*:1])[*:2]; hTyr(3S-OH,4S-OH) = N[C@H](C(=O)O)[C@H](O)[C@@H](O)c1ccc(O)cc1; Pro(3S-OH,4S-Me) = C[C@H]1CN[C@H](C(=O)O)[C@H]1O; Hyp = O=C(O)[C@@H]1C[C@@H](O)CN1

Columns and labels:
[1] = Pharmacokinetics (oral bioavailability) following oral administration in beagle dogs; format: in vivo; design: key to Improvement (ratio of % oral bioavailability to saline): NI = no improvement in oral bioavailability in comparison to saline; conditions: for % BA / Improvement (ratio of % oral bioavailability to saline): oral
Protocol: Echinocandin class compounds were administered to beagle dogs weighing approximately 6-10 kg. Each animal received the appropriate prepared test article in a single oral capsule dose at a target dose level of about 7-10 mg/kg. Immediately after dosing, each animal was offered 20 mL-30 mL of water orally (Groups 1-4) or 30 mL of water orally to assist in swallowing the capsule.
Animals were treated and blood samples were drawn and analyzed as provided in Example 1.
The bioavailability of each oral dose formulation was estimated by comparison to intravenous plasma concentration data in dogs from Example 1. The results provided in Table 3 show the oral bioavailability for the echinocandin class compound in saline (formulation 11), and the improvement over saline with the use of a formulation of the invention.

[2] = Circulating half-life in monkey; format: in vivo; conditions: in vivo, assays conducted by applicant, read-out: Half-life (converted)
[3] = Circulating half-life in chimpanzee; format: in vivo; conditions: in vivo, iv, 1 mg/kg, assays conducted by applicant, read-out: Half-life (converted)
[4] = Stability in phosphate buffered saline (PBS); format: physicochemical; conditions: PBS pH 7.4, 37° C.
Protocol: (§1) Stock solutions of compound 22 and anidulafungin were prepared in DMSO at a concentration of 1 mg/mL. Plasma samples were prepared by mixing plasma with 10% volume of 1 M sodium phosphate, pH 7.4, to minimize pH fluctuation, and stock solution to produce plasma samples containing approximately 10,000 ng/mL compound 22 or anidulafungin. For the stability experiments in PBS buffer, plasma was replaced with phosphate buffered saline, pH 7.4. The DMSO concentration was 1% in the final incubation. Multiple individual aliquots (0.5 mL each) were prepared, capped, and incubated at 37° C. At each stability time point, the reaction was stopped by removing the sample from the incubator and adding 0.5 mL of acetonitrile containing internal standard. Samples were centrifuged for approximately 5 minutes at 10000 rpm to precipitate the proteins. Stability was measured in five different matrices (i.e. rat plasma, dog plasma, monkey plasma, human plasma, and PBS). An aliquot (100 μL) of supernatant of each sample was assayed by HPLC. The percentage of anidulafungin and compound 22 remaining at each time point was calculated by dividing the peak area ratio at each time point by the peak area ratio at time zero.

[5] = Circulating half-life in rat; format: in vivo; conditions: in vivo, assays conducted by applicant, read-out: Half-life (converted)
[6] = Circulating half-life in dog; format: in vivo; conditions: beagle, in vivo, assays conducted by applicant, read-out: Half-life (converted)
[7] = Stability in human plasma; format: in vitro ADME; conditions: human plasma, 37° C.
Protocol: as §1

[8] = Stability in monkey plasma; format: in vitro ADME; conditions: monkey plasma, 37° C.
Protocol: as §1

[9] = Pharmacokinetics in chimpanzee, IV dose; conditions: female, in vivo, chimpanzees, 1-mg/kg IV 60-minute infusion, mean of 2 chimps
Protocol: Pharmacokinetic studies were performed in six adult female chimpanzees. Two chimpanzees received 1-mg/kg IV dose of compound 22 formulated in 5% dextrose (60-minute infusion). Two chimpanzees received 10-mg/kg oral dose of compound 22 formulated in 5% citric acid (oral bolus). Two chimpanzees received 1-mg/kg IV dose of anidulafungin formulated as package label (5% dextrose, 60-minute infusion). Plasma samples were collected from all chimps for 10 days to 22 days. PK curves are depicted in FIGS. 16A, 16B, and 18. All pharmacokinetic calculations were performed using WinNonlin version 4.1 (Pharsight Corp) by noncompartmental analysis.

[10] = Stability in rat plasma; format: in vitro ADME; conditions: rat plasma, 37° C.
Protocol: as §1

[11] = Stability in dog plasma; format: in vitro ADME; conditions: dog plasma, 37° C.
Protocol: as §1

[12] = Solubility in aqueous media of varying pH; format: physicochemical; conditions: ambient temperature, compound 22 as acetate salt, salt free equivalent, read-out: Solubility

CCCCCOc1ccc(-c2ccc(-c3ccc(C(=O)N[C@H]4C[C@@H](O)[C@@H](O)NC(=O)[C@@H]5[C@@H](O)[C@@H](C)CN5C(=O)[C@H]([C@@H](C)O)NC(=O)[C@H]([C@H](O)[C@@H](O)c5ccc(O)cc5)NC(=O)[C@@H]5C[C@@H](O)CN5C(=O)[C@H]([C@@H](C)O)NC4=O)cc3)cc2)cc1 [Anidulafungin, anidulafungin, reference compound] ({pTerphenylCO(4''-OnC5H11)}-[Orn(4R-OH,5R-OH)]T[Hyp][hTyr(3S-OH,4S-OH)]T[Pro(3S-OH,4S-Me)]; lactam 1-C)
% BA in saline ([1]; oral about 7-10 mg/kg, formulation 11 (saline)): 7.80% | % BA ([1]; formulation 1): (14.3%) | Improvement (ratio of % oral bioavailability to saline) ([1]; formulation 1): 1.8 | Improvement (ratio of % oral bioavailability to saline) ([1]; formulation 2): NI | % BA ([1]; formulation 3): (9.80%) | Improvement (ratio of % oral bioavailability to saline) ([1]; formulation 3): 1.3 | Improvement (ratio of % oral bioavailability to saline) ([1]; formulation 4): NI^4 | % BA ([1]; formulation 5): (16.5%) | Improvement (ratio of % oral bioavailability to saline) ([1]; formulation 5): 2.1 | Improvement (ratio of % oral bioavailability to saline) ([1]; formulation 6): NI | Half-life [2]: 8 h | Half-life [3]: 30 h | % remaining ([4]; 0 h): 100% | % remaining ([4]; 1 h): 100% | % remaining ([4]; 2 h): 97.8% | % remaining ([4]; 4 h): 87.4% | % remaining ([4]; 8 h): 86.0% | % remaining ([4]; 21 h): 68.9% | % remaining ([4]; 44 h): 41.9% | Half-life [5]: 22 h | Half-life [6]: 12 h | % remaining ([7]; 0 h): 100% | % remaining ([7]; 1 h): 102% | % remaining ([7]; 2 h): 98.0% | % remaining ([7]; 4 h): 61.8% | % remaining ([7]; 8 h): 72.0% | % remaining ([7]; 21 h): 51.2% | % remaining ([7]; 44 h): 7.3% | % remaining ([8]; 0 h): 100% | % remaining ([8]; 1 h): 106% | % remaining ([8]; 2 h): 111% | % remaining ([8]; 4 h): 68.1% | % remaining ([8]; 8 h): 76.0% | % remaining ([8]; 21 h): 22.4% | % remaining ([8]; 44 h): 13.8% | clearance ([9]; read-out: Clearance (converted)): 0.417 mL/min/kg | Half-life ([9]; read-out: Plasma half-life (IV) (converted)): 30 h | Vd ([9]; read-out: Volume of distribution): 1.1 L/kg | % remaining ([10]; 0 h): 100% | % remaining ([10]; 1 h): 84.3% | % remaining ([10]; 2 h): 76.5% | % remaining ([10]; 4 h): 45.6% | % remaining ([10]; 8 h): 23.2% | % remaining ([10]; 21 h): 7.3% | % remaining ([10]; 44 h): 7.4% | % remaining ([11]; 0 h): 100% | % remaining ([11]; 1 h): 100% | % remaining ([11]; 2 h): 94.8% | % remaining ([11]; 4 h): 77.1% | % remaining ([11]; 8 h): 81.1% | % remaining ([11]; 21 h): 47.2% | % remaining ([11]; 44 h): 14.6% | solubility ([12]; Sterile Water for injection): < 10 µg/mL | solubility ([12]; aqueous buffer, Acetate buffer (0.01M, pH 4.5)): < 10 µg/mL | solubility ([12]; aqueous buffer, Acetate buffer (0.01M, pH 5.5)): < 10 µg/mL | solubility ([12]; aqueous buffer, Tris buffer (0.01M, pH 8.5)): < 10 µg/mL | solubility ([12]; aqueous with cosolvent or surfactant or cyclodextrin, 90% Water:10% glycerol): < 10 µg/mL
